Molecular target: T1, Human BCL-XL protein (N-terminal HiBiT tagged BCL-XL in HT1080 cells) (Homo sapiens, UniProt Q07817)
T1 construct: expressed in transfected cells; host or cells: HT-1080 (ATCC CCL-121), stably transduced with lentivirus pLV-UBC-N-HiBiT-BCL-XL-PGK-puro and selected with puromycin
Assay: HiBiT based degradation assay
Type: cell-based
Conditions: HT1080 cells expressing HiBiT-BCL-XL, 24 h; for Ymin (24 h): BCL-XL degradation normalized with DMSO control; for DC50: BCL-XL degradation, read-out: EC50 (24 h)
Method in brief: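 HT1080 cells stably transduced by lentivirus with N-terminally HiBiT-tagged human BCL-XL and kept under 1 μg/mL puromycin selection were seeded at three thousand cells per well in 40 μL RPMI 1640 into 384-well plates pre-spotted with compounds across a concentration range. Luminescence was read on a PHERAstar FSX, normalized to DMSO, and fitted with a four-parameter logistic model.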

T1 sequence (Q07817 whole entry): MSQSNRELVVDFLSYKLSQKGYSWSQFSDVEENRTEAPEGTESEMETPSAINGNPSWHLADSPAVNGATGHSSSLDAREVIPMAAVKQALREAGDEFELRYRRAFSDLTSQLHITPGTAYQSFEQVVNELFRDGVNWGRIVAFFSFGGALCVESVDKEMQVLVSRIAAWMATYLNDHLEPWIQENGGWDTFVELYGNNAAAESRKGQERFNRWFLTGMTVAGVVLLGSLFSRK

| SMILES | Ymin (24 h) | DC50 |
| --- | --- | --- |
| Cc1c(O[C@H]2CC[C@H](CCCN3CCN(c4ccc5c(C6CCC(=O)NC6=O)nn(C)c5c4)CC3(C)C)CC2)cccc1-c1ccc(N2CCc3cccc(C(=O)Nc4nc5ccccc5s4)c3C2)nc1C(=O)O (stereo partly drawn) [Compound 336a, 6-(8-(benzo[d]thiazol-2-ylcarbamoyl)-3,4-dihydroisoquinolin-2(1H)-yl)-3-(3-(((1s,4r)-4-(3-(4-(3-(2,6-dioxopiperidin-3-yl)-1-methyl-1H-indazol-6-yl)-2,2-dimethylpiperazin-1-yl)propyl)cyclohexyl)oxy)-2-methylphenyl)picolinic acid] | A (Ymin < 50%) | < 100 nM |
| Cc1c(O[C@H]2CC[C@H](CCCN3CCC(Oc4ccc5c(C6CCC(=O)NC6=O)nn(C)c5c4)CC3)CC2)cccc1-c1ccc(N2CCc3cccc(C(=O)Nc4nc5ccccc5s4)c3C2)nc1C(=O)O (stereo partly drawn) [Compound 337a, 6-(8-(benzo[d]thiazol-2-ylcarbamoyl)-3,4-dihydroisoquinolin-2(1H)-yl)-3-(3-(((1s,4r)-4-(3-(4-((3-(2,6-dioxopiperidin-3-yl)-1-methyl-1H-indazol-6-yl)oxy)piperidin-1-yl)propyl)cyclohexyl)oxy)-2-methylphenyl)picolinic acid] | A (Ymin < 50%) | < 100 nM |
| Cc1c(O[C@H]2CC[C@H](CCCN3CCC(Oc4cccc5c(C6CCC(=O)NC6=O)nn(C)c45)CC3)CC2)cccc1-c1ccc(N2CCc3cccc(C(=O)Nc4nc5ccccc5s4)c3C2)nc1C(=O)O (stereo partly drawn) [Compound 338a, 6-(8-(benzo[d]thiazol-2-ylcarbamoyl)-3,4-dihydroisoquinolin-2(1H)-yl)-3-(3-(((1s,4r)-4-(3-(4-((3-(2,6-dioxopiperidin-3-yl)-1-methyl-1H-indazol-7-yl)oxy)piperidin-1-yl)propyl)cyclohexyl)oxy)-2-methylphenyl)picolinic acid] | A (Ymin < 50%) | < 100 nM |
| Cc1c(O[C@H]2CC[C@H](CCCCN3CCN(c4ccc5c(C6CCC(=O)NC6=O)nn(C)c5c4)[C@@H](C(F)(F)F)C3)CC2)cccc1-c1ccc(N2CCc3cccc(C(=O)Nc4nc5ccccc5s4)c3C2)nc1C(=O)O (stereo partly drawn) [Compound 339a, 6-(8-(benzo[d]thiazol-2-ylcarbamoyl)-3,4-dihydroisoquinolin-2(1H)-yl)-3-(3-(((1s,4r)-4-(4-((3R)-4-(3-(2,6-dioxopiperidin-3-yl)-1-methyl-1H-indazol-6-yl)-3-(trifluoromethyl)piperazin-1-yl)butyl)cyclohexyl)oxy)-2-methylphenyl)picolinic acid] | B (50% ≤ Ymin < 70%) | < 100 nM |
| Cc1c(O[C@H]2CC[C@H](CCC(C)(C)N3CCN(c4ccc5c(C6CCC(=O)NC6=O)nn(C)c5c4)CC3)CC2)cccc1-c1ccc(N2CCc3cccc(C(=O)Nc4nc5ccccc5s4)c3C2)nc1C(=O)O (stereo partly drawn) [Compound 340a, 6-(8-(benzo[d]thiazol-2-ylcarbamoyl)-3,4-dihydroisoquinolin-2(1H)-yl)-3-(3-(((1s,4r)-4-(3-(4-(3-(2,6-dioxopiperidin-3-yl)-1-methyl-1H-indazol-6-yl)piperazin-1-yl)-3-methylbutyl)cyclohexyl)oxy)-2-methylphenyl)picolinic acid] | A (Ymin < 50%) | < 100 nM |
| Cc1c(O[C@H]2CC[C@H](CCC(C)(C)N3CCN(c4cccc5c(C6CCC(=O)NC6=O)nn(C)c45)CC3)CC2)cccc1-c1ccc(N2CCc3cccc(C(=O)Nc4nc5ccccc5s4)c3C2)nc1C(=O)O (stereo partly drawn) [Compound 341a, 6-(8-(benzo[d]thiazol-2-ylcarbamoyl)-3,4-dihydroisoquinolin-2(1H)-yl)-3-(3-(((is, 4r)-4-(3-(4-(3-(2,6-dioxopiperidin-3-yl)-1-methyl-1H-indazol-7-yl)piperazin-1-yl)-3-methylbutyl)cyclohexyl)oxy)-2-methylphenyl)picolinic acid] | A (Ymin < 50%) | < 100 nM |
| Cc1c(O[C@H]2CC[C@H](CCCC(C)(C)N3CCN(c4cccc5c(C6CCC(=O)NC6=O)nn(C)c45)CC3)CC2)cccc1-c1ccc(N2CCc3cccc(C(=O)Nc4nc5ccccc5s4)c3C2)nc1C(=O)O (stereo partly drawn) [Compound 342a, 6-(8-(benzo[d]thiazol-2-ylcarbamoyl)-3,4-dihydroisoquinolin-2(1H)-yl)-3-(3-(((1s,4r)-4-(4-(4-(3-(2,6-dioxopiperidin-3-yl)-1-methyl-1H-indazol-7-yl)piperazin-1-yl)-4-methylpentyl)cyclohexyl)oxy)-2-methylphenyl)picolinic acid] | A (Ymin < 50%) | < 100 nM |
| Cc1c(OCCC[C@@H]2CCN(CC(=O)Nc3ccc4c(C5CCC(=O)NC5=O)nn(C)c4c3)[C@H](C)C2)cccc1-c1ccc(N2CCc3cccc(C(=O)Nc4nc5ccccc5s4)c3C2)nc1C(=O)O (stereo partly drawn) [Compound 343a, 6-(8-(benzo[d]thiazol-2-ylcarbamoyl)-3,4-dihydroisoquinolin-2(1H)-yl)-3-(3-(3-((2R,4R)-1-(2-((3-(2,6-dioxopiperidin-3-yl)-1-methyl-1H-indazol-6-yl)amino)-2-oxoethyl)-2-methylpiperidin-4-yl)propoxy)-2-methylphenyl)picolinic acid] | A (Ymin < 50%) | < 100 nM |
| Cc1c(OCCC[C@H]2CCN(CC(=O)Nc3ccc4c(C5CCC(=O)NC5=O)nn(C)c4c3)[C@H](C)C2)cccc1-c1ccc(N2CCc3cccc(C(=O)Nc4nc5ccccc5s4)c3C2)nc1C(=O)O (stereo partly drawn) [Compound 343b, 6-[8-(1,3-benzothiazol-2-ylcarbamoyl)-3,4-dihydro-1H-isoquinolin-2-yl]-3-[3-[3-[(2R,4S)-1-[2-[[3-(2,6-dioxo-3-piperidyl)-1-methyl-indazol-6-yl]amino]-2-oxo-ethyl]-2-methyl-4-piperidyl]propoxy]-2-methyl-phenyl]pyridine-2-carboxylic acid] | A (Ymin < 50%) | < 100 nM |
| Cc1c(OCCC[C@@H]2CCN(CC(=O)Nc3ccc4c(C5CCC(=O)NC5=O)nn(C)c4c3)[C@@H](C)C2)cccc1-c1ccc(N2CCc3cccc(C(=O)Nc4nc5ccccc5s4)c3C2)nc1C(=O)O (stereo partly drawn) [Compound 343c, 6-(8-(benzo[d]thiazol-2-ylcarbamoyl)-3,4-dihydroisoquinolin-2(1H)-yl)-3-(3-(3-((2S,4R)-1-(2-((3-(2,6-dioxopiperidin-3-yl)-1-methyl-1H-indazol-6-yl)amino)-2-oxoethyl)-2-methylpiperidin-4-yl)propoxy)-2-methylphenyl)picolinic acid] | A (Ymin < 50%) | < 100 nM |
| Cc1c(OCCC[C@H]2CCN(CC(=O)Nc3ccc4c(C5CCC(=O)NC5=O)nn(C)c4c3)[C@@H](C)C2)cccc1-c1ccc(N2CCc3cccc(C(=O)Nc4nc5ccccc5s4)c3C2)nc1C(=O)O (stereo partly drawn) [Compound 343d, 6-[8-(1,3-benzothiazol-2-ylcarbamoyl)-3,4-dihydro-1H-isoquinolin-2-yl]-3-[3-[3-[(2S,4S)-1-[2-[[3-(2,6-dioxo-3-piperidyl)-1-methyl-indazol-6-yl]amino]-2-oxo-ethyl]-2-methyl-4-piperidyl]propoxy]-2-methyl-phenyl]pyridine-2-carboxylic acid] | A (Ymin < 50%) | < 100 nM |
| Cc1cc(OCCC[C@H]2CCN(CC(=O)Nc3ccc4c(C5CCC(=O)NC5=O)nn(C)c4c3)[C@@H](C)C2)ccc1-c1ccc(N2CCc3cccc(C(=O)Nc4nc5ccccc5s4)c3C2)nc1C(=O)O (stereo partly drawn) [Compound 344a, 6-[8-(1,3-benzothiazol-2-ylcarbamoyl)-3,4-dihydro-1H-isoquinolin-2-yl]-3-[4-[3-[(2S,4S)-1-[2-[[3-(2,6-dioxo-3-piperidyl)-1-methyl-indazol-6-yl]amino]-2-oxo-ethyl]-2-methyl-4-piperidyl]propoxy]-2-methyl-phenyl]pyridine-2-carboxylic acid] | A (Ymin < 50%) | < 100 nM |
| Cc1cc(OCCC[C@@H]2CCN(CC(=O)Nc3ccc4c(C5CCC(=O)NC5=O)nn(C)c4c3)[C@H](C)C2)ccc1-c1ccc(N2CCc3cccc(C(=O)Nc4nc5ccccc5s4)c3C2)nc1C(=O)O (stereo partly drawn) [Compound 344b, 6-[8-(1,3-benzothiazol-2-ylcarbamoyl)-3,4-dihydro-1H-isoquinolin-2-yl]-3-[4-[3-[(2R,4R)-1-[2-[[3-(2,6-dioxo-3-piperidyl)-1-methyl-indazol-6-yl]amino]-2-oxo-ethyl]-2-methyl-4-piperidyl]propoxy]-2-methyl-phenyl]pyridine-2-carboxylic acid] | A (Ymin < 50%) | < 100 nM |
| Cc1cc(OCCC[C@H]2CCN(CC(=O)Nc3ccc4c(C5CCC(=O)NC5=O)nn(C)c4c3)[C@H](C)C2)ccc1-c1ccc(N2CCc3cccc(C(=O)Nc4nc5ccccc5s4)c3C2)nc1C(=O)O (stereo partly drawn) [Compound 344c, 6-[8-(1,3-benzothiazol-2-ylcarbamoyl)-3,4-dihydro-1H-isoquinolin-2-yl]-3-[4-[3-[(2R,4S)-1-[2-[[3-(2,6-dioxo-3-piperidyl)-1-methyl-indazol-6-yl]amino]-2-oxo-ethyl]-2-methyl-4-piperidyl]propoxy]-2-methyl-phenyl]pyridine-2-carboxylic acid] | A (Ymin < 50%) | < 100 nM |
| Cc1cc(OCCC[C@@H]2CCN(CC(=O)Nc3ccc4c(C5CCC(=O)NC5=O)nn(C)c4c3)[C@@H](C)C2)ccc1-c1ccc(N2CCc3cccc(C(=O)Nc4nc5ccccc5s4)c3C2)nc1C(=O)O (stereo partly drawn) [Compound 344d, 6-(8-(benzo[d]thiazol-2-ylcarbamoyl)-3,4-dihydroisoquinolin-2(1H)-yl)-3-(4-(3-((2S,4R)-1-(2-((3-(2,6-dioxopiperidin-3-yl)-1-methyl-1H-indazol-6-yl)amino)-2-oxoethyl)-2-methylpiperidin-4-yl)propoxy)-2-methylphenyl)picolinic acid] | A (Ymin < 50%) | < 100 nM |
